According to patent US20060069132A1, “Azolecarboxamide herbicides” (priority 2004, published 2006):

Tests used:
[1] = tested on: Surinam grass; assay: Test B pre-/postemergence herbicide test; type: in vivo, Urochloa decumbens; conditions: for Surinam Grass plant response rating: postemergence, visual rating, scale 0 (no effect) to 100 (complete control)
Method in brief: (§1)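 Plants compared with untreated controls 13–15 days post-treatment and given a visual 0–100 injury score. Applications: preemergence to seeds; postemergence at 1- to 4-leaf (2–18 cm); paddy species flooded, 2-leaf stage. Vehicle non-phytotoxic, surfactant included.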

[2] = tested on: barnyardgrass; assay: Test C flooded paddy test; type: in vivo, Echinochloa crus-galli; conditions: for Plant response rating, Barnyardgrass: 500 g ai/ha, visual rating after 12 to 14 days
Method in brief: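 Postemergence sprays were applied to plants 2 to 18 cm tall (1- to 4-leaf stage); in the flooded paddy test, barnyardgrass was grown to the 2-leaf stage. After 12 to 14 days in a greenhouse, injury was visually rated against untreated controls on a 0–100 scale (100 = complete control).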

[3] = tested on: pigweed; assay: Test B pre-/postemergence herbicide test; type: in vivo, Amaranthus retroflexus; conditions: for Pigweed plant response rating: postemergence, visual rating, scale 0 (no effect) to 100 (complete control)
Method in brief: as §1

[4] = tested on: large crabgrass; assay: Test B pre-/postemergence herbicide test; type: in vivo, Digitaria sanguinalis; conditions: for Crabgrass, Large plant response rating: postemergence, visual rating, scale 0 (no effect) to 100 (complete control)
Method in brief: as §1

[5] = tested on: velvetleaf; assay: Test B pre-/postemergence herbicide test; type: in vivo, Abutilon theophrasti; conditions: for Velvetleaf plant response rating: postemergence, visual rating, scale 0 (no effect) to 100 (complete control)
Method in brief: as §1

[6] = tested on: small flower umbrella sedge; assay: Test B flooded paddy test; type: in vivo, Cyperus difformis; conditions: 1000 g ai/ha, visual rating, scale 0 to 100 (0 no effect, 100 complete control), 13 to 15 days
Method in brief: (§2)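 Greenhouse test; postemergence application to plants at 1–4 leaves (2–18 cm); paddy species at 2 leaves; evaluated visually vs controls at 13–15 days; scale 0–100 (100 = complete control).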

[7] = tested on: ducksalad; assay: Test C flooded paddy test; type: in vivo, Heteranthera limosa; conditions: for Plant response rating, Ducksalad: 500 g ai/ha, visual rating after 12 to 14 days
[8] = tested on: rice; assay: Test B pre-/postemergence herbicide test; type: in vivo, Oryza sativa; conditions: preemergence; for Plant response rating, Rice: 500 g ai/ha, visual rating 0-100, 0 no effect, 100 complete control
Method in brief: (§3)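 Greenhouse pot assay with simultaneous preemergence (treated seed) and postemergence (2–18 cm seedlings) applications of surfactant-containing, non-phytotoxic solvent formulations. Response scored visually 13–15 days later on a 0–100 scale, 100 meaning complete control.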

[9] = tested on: cocklebur; assay: Test B pre-/postemergence herbicide test; type: in vivo, Xanthium strumarium; conditions: for Cocklebur plant response rating: postemergence, visual rating, scale 0 (no effect) to 100 (complete control)
Method in brief: as §3

[10] = tested on: barnyardgrass; assay: Test B flooded paddy test; type: in vivo, Echinochloa crus-galli; conditions: 1000 g ai/ha, visual rating, scale 0 to 100 (0 no effect, 100 complete control), 13 to 15 days
Method in brief: as §2

[11] = tested on: rice; assay: Test B flooded paddy test; type: in vivo, Oryza sativa; conditions: 1000 g ai/ha, visual rating, scale 0 to 100 (0 no effect, 100 complete control), 13 to 15 days
Method in brief: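 Formulated test chemicals went onto postemergence plants measuring 2 to 18 cm, at one to four leaves. For the paddy assay, species had reached two leaves. Scoring took place 13–15 days later by eye, relative to untreated plants, using 0 for no effect up to 100 for full control.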

[12] = tested on: wild oat; assay: Test B postemergence herbicide test; type: in vivo, Avena fatua; conditions: postemergence, visual rating, scale 0 (no effect) to 100 (complete control)
Method in brief: (§4)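 Read-out: visual comparison with controls, scored 0 to 100, where 100 means complete control and 0 no effect. Formulated chemicals were applied postemergence to plants 2–18 cm tall (1- to 4-leaf), or to flooded-paddy plants at the 2-leaf stage, then held 13 to 15 days under glass.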

[13] = tested on: ducksalad; assay: Test B flooded paddy test; type: in vivo, Heteranthera limosa; conditions: 1000 g ai/ha, visual rating, scale 0 to 100 (0 no effect, 100 complete control), 13 to 15 days
Method in brief: as §2

[14] = tested on: smallflower umbrella sedge; assay: Test C flooded paddy test; type: in vivo, Cyperus difformis; conditions: for Plant response rating, Sedge, Umbrella: 500 g ai/ha, visual rating after 12 to 14 days
[15] = tested on: lambsquarters; assay: Test B pre-/postemergence herbicide test; type: in vivo, Chenopodium album; conditions: for Lambsquarters plant response rating: postemergence, visual rating, scale 0 (no effect) to 100 (complete control)
Method in brief: as §1

[16] = tested on: morningglory; assay: Test B pre-/postemergence herbicide test; type: in vivo, Ipomoea coccinea; conditions: for Morningglory plant response rating: postemergence, visual rating, scale 0 (no effect) to 100 (complete control)
Method in brief: as §3

[17] = tested on: blackgrass; assay: Test B postemergence herbicide test; type: in vivo, Alopecurus myosuroides; conditions: postemergence, visual rating, scale 0 (no effect) to 100 (complete control)
Method in brief: as §2

[18] = tested on: rice; assay: Test C flooded paddy test; type: in vivo, Oryza sativa; conditions: for Plant response rating, Rice: 500 g ai/ha, visual rating after 12 to 14 days
Method in brief: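 Postemergence sprays applied to plants 2 to 18 cm tall (1- to 4-leaf stage); paddy species grown to 2-leaf stage under flooding. After 12 to 14 days in greenhouse, visual rating versus untreated controls on 0–100 scale (0 no effect, 100 complete control).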

[19] = tested on: giant foxtail; assay: Test B pre-/postemergence herbicide test; type: in vivo, Setaria faberi; conditions: for Foxtail, Giant plant response rating: postemergence, visual rating, scale 0 (no effect) to 100 (complete control)
Method in brief: as §1

[20] = tested on: corn; assay: Test B pre-/postemergence herbicide test; type: in vivo, Zea mays; conditions: for Corn plant response rating: postemergence, visual rating, scale 0 (no effect) to 100 (complete control)
Method in brief: as §1

[21] = tested on: barnyardgrass; assay: Test B pre-/postemergence herbicide test; type: in vivo, Echinochloa crus-galli; conditions: for Barnyardgrass plant response rating: postemergence, visual rating, scale 0 (no effect) to 100 (complete control)
Method in brief: as §3

[22] = tested on: wheat; assay: Test B postemergence herbicide test; type: in vivo, Triticum aestivum; parameters: key to Wheat plant response rating: 0 = no effect, 100 = complete control; conditions: postemergence, visual rating, scale 0 (no effect) to 100 (complete control)
Method in brief: as §4

[23] = 500 g ai/ha, visual rating 0-100, 0 no effect, 100 complete control, preemergence
[24] = preemergence, 125 g ai/ha, 0 to 100 scale, 0 is no effect, 100 is complete control
[25] = 62 g ai/ha, scale 0 to 100 (0 no effect, 100 complete control)
[26] = 250 g ai/ha, scale of 0 to 100, 0 is no effect, 100 is complete control
[27] = scale 0 to 100 (0 no effect, 100 complete control)
[28] = 125 g ai/ha, scale 0 to 100 (0 no effect, 100 complete control)
[29] = 125 g ai/ha, 0 = no effect, 100 = complete control, preemergence

C#CCN(C)C(=O)c1ccnc(NC(=O)c2cc(C(C)(C)C)nn2CC)c1 [Compound 160]
20: Plant response rating, Surinam Grass [1, 24] | Barnyardgrass plant response rating [2, 25] | Plant response rating, Crabgrass, Large [4, 24] | Cocklebur plant response rating ([9]; 125 g ai/ha) | Plant response rating, Morningglory [16, 24] | Plant response rating, Corn [20, 23]
85: Plant response rating, Barnyardgrass [2, 27] | Ducksalad plant response rating [7, 28] | Plant response rating, Sedge, Umbrella [14, 27]
40: Pigweed plant response rating ([3]; 125 g ai/ha) | Plant response rating, Cocklebur [9, 24]
10: Surinam Grass plant response rating ([1]; 125 g ai/ha) | Surinam Grass plant response rating ([1]; 500 g ai/ha) | Oat, Wild plant response rating ([12]; 125 g ai/ha) | Plant response rating, Foxtail, Giant [19, 24] | Barnyardgrass plant response rating ([21]; 500 g ai/ha) | Wheat plant response rating ([22]; 500 g ai/ha)
75: Ducksalad plant response rating [7, 25] | Rice plant response rating [18, 26]
50: Sedge, Umbrella plant response rating [14, 25] | Blackgrass plant response rating ([17]; 500 g ai/ha)
30: Oat, Wild plant response rating ([12]; 500 g ai/ha) | Foxtail, Giant plant response rating ([19]; 125 g ai/ha) | Foxtail, Giant plant response rating ([19]; 500 g ai/ha)
80: Pigweed plant response rating ([3]; 500 g ai/ha) | Plant response rating, Crabgrass, Large [4, 23] | Plant response rating, Velvetleaf [5, 23] | Sedge, Umbrella plant response rating [6] | Plant response rating, Rice [8] | Sedge, Umbrella plant response rating [14, 26] | Lambsquarters plant response rating ([15]; 500 g ai/ha)
95: Plant response rating, Rice [18, 27]
60: Barnyardgrass plant response rating ([2]; 125 g ai/ha, scale of 0 to 100, 0 is no effect, 100 is complete control) | Plant response rating, Velvetleaf [5, 24] | Rice plant response rating [18, 25]
100: Plant response rating, Pigweed [3, 23] | Plant response rating, Pigweed [3, 24] | Plant response rating, Lambsquarters [15, 23] | Plant response rating, Lambsquarters [15, 24] | Plant response rating, Barnyardgrass [21, 23]
0: Crabgrass, Large plant response rating ([4]; 125 g ai/ha) | Crabgrass, Large plant response rating ([4]; 500 g ai/ha) | Morningglory plant response rating ([16]; 125 g ai/ha) | Corn plant response rating ([20]; 125 g ai/ha) | Corn plant response rating ([20]; 500 g ai/ha) | Plant response rating, Corn [20, 24] | Barnyardgrass plant response rating ([21]; 125 g ai/ha)
90: Ducksalad plant response rating [7, 26] | Plant response rating, Ducksalad [7, 27] | Cocklebur plant response rating ([9]; 500 g ai/ha) | Rice plant response rating [11] | Ducksalad plant response rating [13] | Plant response rating, Morningglory [16, 23]
70: Plant response rating, Surinam Grass [1, 23] | Barnyardgrass plant response rating [2, 26] | Velvetleaf plant response rating ([5]; 125 g ai/ha) | Velvetleaf plant response rating ([5]; 500 g ai/ha) | Plant response rating, Cocklebur [9, 23] | Barnyardgrass plant response rating [10] | Sedge, Umbrella plant response rating [14, 28] | Lambsquarters plant response rating ([15]; 125 g ai/ha) | Morningglory plant response rating ([16]; 500 g ai/ha) | Rice plant response rating [18, 28] | Plant response rating, Foxtail, Giant [19, 23] | Plant response rating, Barnyardgrass [21, 24]

CCc1nn(C(C)(C)C)cc1C(=O)Nc1cc(C(=O)NC)ccc1F [Compound 194]
70: Plant response rating, Rice [8]
100: Plant response rating, Pigweed [3, 23] | Crabgrass, Large plant response rating (0 to 100 scale) [4, 29] | Plant response rating, Crabgrass, Large [4, 23]
90: Ducksalad plant response rating [13] | Plant response rating, Barnyardgrass [21, 23]
20: Pigweed plant response rating ([3]; 125 g ai/ha) | Velvetleaf plant response rating (0 to 100 scale) [5, 29] | Plant response rating, Cocklebur [9, 23] | Morningglory plant response rating (0 to 100 scale) [16, 29]
40: Plant response rating, Ducksalad [7, 27]
0: Surinam Grass plant response rating (0 to 100 scale) [1, 29] | Barnyardgrass plant response rating [2, 25] | Barnyardgrass plant response rating [2, 28] | Barnyardgrass plant response rating [2, 26] | Pigweed plant response rating (0 to 100 scale) [3, 29] | Ducksalad plant response rating [7, 25] | Ducksalad plant response rating [7, 28] | Ducksalad plant response rating [7, 26] | Rice plant response rating (0 to 100 scale) ([8]; 125 g ai/ha, 0 = no effect, 100 = complete control) | Cocklebur plant response rating (0 to 100 scale) [9, 29] | Oat, Wild plant response rating ([12]; 125 g ai/ha) | Oat, Wild plant response rating ([12]; 500 g ai/ha) | Sedge, Umbrella plant response rating [14, 25] | Sedge, Umbrella plant response rating [14, 28] | Blackgrass plant response rating ([17]; 125 g ai/ha) | Blackgrass plant response rating ([17]; 500 g ai/ha) | Rice plant response rating [18, 25] | Foxtail, Giant plant response rating ([19]; 125 g ai/ha) | Foxtail, Giant plant response rating ([19]; 500 g ai/ha) | Corn plant response rating (0 to 100 scale) [20, 29] | Corn plant response rating ([20]; 125 g ai/ha) | Corn plant response rating ([20]; 500 g ai/ha) | Barnyardgrass plant response rating (0 to 100 scale) [21, 29] | Barnyardgrass plant response rating ([21]; 125 g ai/ha) | Wheat plant response rating ([22]; 125 g ai/ha) | Wheat plant response rating ([22]; 500 g ai/ha)
30: Pigweed plant response rating ([3]; 500 g ai/ha) | Lambsquarters plant response rating (0 to 100 scale) [15, 29] | Lambsquarters plant response rating ([15]; 500 g ai/ha)
50: Barnyardgrass plant response rating [10] | Plant response rating, Morningglory [16, 23] | Plant response rating, Corn [20, 23]
25: Plant response rating, Barnyardgrass [2, 27] | Rice plant response rating [18, 28] | Rice plant response rating [18, 26]
80: Sedge, Umbrella plant response rating [6] | Plant response rating, Foxtail, Giant [19, 23]
45: Plant response rating, Rice [18, 27]
60: Plant response rating, Surinam Grass [1, 23] | Plant response rating, Velvetleaf [5, 23] | Rice plant response rating [11]
10: Surinam Grass plant response rating ([1]; 125 g ai/ha) | Surinam Grass plant response rating ([1]; 500 g ai/ha) | Crabgrass, Large plant response rating ([4]; 125 g ai/ha) | Crabgrass, Large plant response rating ([4]; 500 g ai/ha) | Velvetleaf plant response rating ([5]; 125 g ai/ha) | Velvetleaf plant response rating ([5]; 500 g ai/ha) | Cocklebur plant response rating ([9]; 125 g ai/ha) | Cocklebur plant response rating ([9]; 500 g ai/ha) | Morningglory plant response rating ([16]; 125 g ai/ha) | Morningglory plant response rating ([16]; 500 g ai/ha) | Foxtail, Giant plant response rating (0 to 100 scale) [19, 29] | Barnyardgrass plant response rating ([21]; 500 g ai/ha)
75: Plant response rating, Sedge, Umbrella [14, 27]
35: Sedge, Umbrella plant response rating [14, 26]
